Results: PMC11603075 (Communications Biology, 2024)

Experiments:
[1] = molecular target: T1, KDM5C (Homo sapiens, UniProt P41229); assay: MALDI–TOF MS demethylation/+16 Da assay, KDM5C; type: biochemical; settings: 90 min
T1 construct: KDM5C 1– 765; made in house; host or cells: Sf9 cells
T1 sequence (P41229 1-765): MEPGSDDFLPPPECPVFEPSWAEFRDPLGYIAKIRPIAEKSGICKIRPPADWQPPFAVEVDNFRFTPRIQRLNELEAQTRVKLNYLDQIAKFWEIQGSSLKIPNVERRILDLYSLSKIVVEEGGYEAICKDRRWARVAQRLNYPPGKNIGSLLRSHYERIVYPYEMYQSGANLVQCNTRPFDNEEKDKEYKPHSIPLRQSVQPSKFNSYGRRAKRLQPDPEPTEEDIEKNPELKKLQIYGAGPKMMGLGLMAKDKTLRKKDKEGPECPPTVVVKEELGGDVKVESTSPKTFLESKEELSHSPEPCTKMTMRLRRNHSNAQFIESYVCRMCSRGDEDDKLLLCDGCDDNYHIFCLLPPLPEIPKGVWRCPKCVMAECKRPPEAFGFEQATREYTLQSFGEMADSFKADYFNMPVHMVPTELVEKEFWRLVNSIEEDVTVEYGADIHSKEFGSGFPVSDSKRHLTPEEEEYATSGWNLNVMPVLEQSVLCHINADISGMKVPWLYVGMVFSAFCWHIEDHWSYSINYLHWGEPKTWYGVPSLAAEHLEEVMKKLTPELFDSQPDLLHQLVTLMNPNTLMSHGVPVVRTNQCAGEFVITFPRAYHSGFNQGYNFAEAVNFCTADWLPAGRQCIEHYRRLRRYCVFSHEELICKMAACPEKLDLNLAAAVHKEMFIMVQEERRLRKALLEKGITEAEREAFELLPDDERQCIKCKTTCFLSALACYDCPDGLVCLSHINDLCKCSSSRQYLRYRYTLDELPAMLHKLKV
Source text: Fig. 2 Histone H2a fragments are KDM5 and KDM4 substrates. […] See Supplementary Table 6 and Supplementary Fig. 2 for assay conditions and quantification, respectively. […] 0-minute MS spectrum in black, 60/90-minute spectrum in red.
MS-based screening assays with peptides and calf thymus histones were as reported; see Supplementary Table 6 for conditions. Time course assays were based on reported procedures. In brief, equal volumes of the enzyme and substrate solutions were combined to initiate the reaction; 10 µL of 2% (v/v) formic acid (HCOOH) in ddH2O or 100% methanol was added to 10 µL of the reaction mixture to quench reactions at different time points. Unless otherwise stated, time course assays were carried out in triplicate. In some cases, LC–MS was used instead of MALDI-TOF MS to avoid a MALDI matrix induced artefact with the hydroxylated product (Supplementary Fig. 16). […]
Supplementary Figure 2 Histone H2a peptide fragments are substrates of KDM4s and KDM5s.
2 for representative corresponding MALDI–TOF MS traces. Bar graphs comparing % product format ion (+16 Da and demethylation) of H2a(1–20)R3me2a by (a) K DM5 A–D (after 90 minutes) and (b) KDM4A–E ( a ft er 60 minutes), analysed by MALDI– TOF MS. n = (a) 2, (b) 3 (independent assays). See Supplementary Table 6 for assay condit ions. See Figure S13 A 1 for a positive control.
(also on this page, place not known: formation KDM5A–D (after MALDI–TOF conditions. Figure S13A1 KDM4A KDM4B KDM4C KDM4D KDM4E 80% product formation KDM5A KDM5B KDM5C KDM5D % product formation) […]
[ E nz ym e] [Peptide] [2OG] [Ascorbate] [(NH4)2F e(S O4)2] [TCEP] Buffer pH7.5 Enzyme Cognate substrate (mM) (mM) (mM) (mM) (mM) (mM) [HE PE S]
Supplementary Table 6 Summary of MS assay conditions for substrate screening. These conditions enabled efficient turnover of established substrates. Reactions were carried out at 37 °C unless otherwise st ated. […]

[2] = test system: KDM4A1–1064; assay: MALDI–TOF MS product formation, full length KDM4A1–1064; type: biochemical, human; settings: 60 min; for % product formation: 1 µM enzyme, 10 µM peptide
Method: Supplementary Figure 5 H2aR3me2a is a substrate of full length KDM4A. (a) Representative MALDI–T OF
MS (60 -minute incubation) (from top to bottom) K DM4A 1–1064, KDM4A1–35 9 and KDM4E1–337 w it h H 2 a( 1–
Representative data are shown from n = 3 (independent assays). Charge state of labelled ions: [MH]+. (b)
Bar graph comparing % product format ion of H2a(1 –20)R3me2a by KDM4A1–10 64, KDM4A1–359 and KDM4E1–
33 7, analysed by MALDI–TOF MS. n = 2/3 (independent assays). Conditions: 1 µM KDM4A1–359 and KDM4E1–
(NH4)2Fe(SO4)2, and 50 mM HEPES (pH 7.5), 1 mM TCEP, 0.02% (v/v) Triton-X . […]

- +16 Da (% product formation) ([1]; replicate 1): 0%
- demethylation (% product formation) ([1]; replicate 1): 80.591%
- +16 Da (% product formation) ([1]; replicate 2): 0%
- demethylation (% product formation) ([1]; replicate 2): 82.588%
Substance: Ac - SGR [ me 2a ] GKQ GGKAR AKAKT R SSR [H2a(1–20)R3me2a, H2a(1–20)R3me2a without a biotin tag]
- % product formation ([2]; replicate 1): 19.2569%
- % product formation ([2]; replicate 2): 31.6947%
- % product formation ([2]; replicate 3): 39.2291%
- –14 Da mass shift (demethylation) ([2]; MALDI–TOF MS, n = 3): –14 Da mass shifts
